# Data taken from publication PMC11386433 (Journal of Medicinal Chemistry, 2024).
# Like-named read-outs stand apart in the source and are kept apart here.
# Legend:
# wild-type human δOR = molecular target: T1, wild-type human δOR (Homo sapiens, UniProt P41143); assay: Single-molecule microscopy of CHO cells transfected with wild-type δOR; assay type: cell-based
# T1 construct: host or cells: CHO-K1
# human κOR = molecular target: T2, human κOR (Homo sapiens, UniProt P41145); assay: biochemical; assay type: binding
# T2 construct: host or cells: HEK293T (membrane preparation)
# δOR [1] = molecular target: T3, δOR (Homo sapiens, UniProt P41143); assay: cell-based; assay type: cell-based; design: host or cells: HEK293T stably expressing EA-β-arrestin-2; details: for Emax: HEK-293T, read-out: Emax (agonist properties); for response in agonist mode: β-arrestin-2 recruitment
# δOR [2] = molecular target: T3, δOR; assay type: binding; design: host or cells: CHO-K1; details: labeled with 1 μM
# δOR [3] = molecular target: T3, δOR; assay: cell-based; assay type: cell-based; design: Gαqi gift from The J. David Gladstone Institutes; host or cells: HEK293T; details: for Emax: HEK-293T, read-out: Emax (agonist properties); for response in agonist mode: IP-One assay
# human μOR = molecular target: T4, human μOR (Homo sapiens, UniProt P35372); assay: biochemical; assay type: binding
# T4 construct: host or cells: HEK293T (membrane preparation)
# [4] = molecular target: T5, μOR (SNAP-opioid receptor) (Homo sapiens, UniProt P35372); assay: HTRF saturation binding of fluorescent ligand to SNAP-opioid receptors on HEK293T cells
# T5 construct: host or cells: HEK293T
# [5] = molecular target: T6, δOR (SNAP-opioid receptor) (Homo sapiens, UniProt P41143); assay: as above; details: HTRF saturation curve, 1 h room temperature, nonspecific binding with naloxone 100 μM
# T6 construct: host or cells: HEK293T
# [6] = molecular target: T7, κOR (SNAP-opioid receptor) (Homo sapiens, UniProt P41145); assay: as above
# T7 construct: host or cells: HEK293T
# [7] = HTRF saturation curve, value of high uncertainty, saturation not reached
# [8] = selectivity ratio of HTRF Kd values, high uncertainty
# T4 sequence (P35372 whole entry): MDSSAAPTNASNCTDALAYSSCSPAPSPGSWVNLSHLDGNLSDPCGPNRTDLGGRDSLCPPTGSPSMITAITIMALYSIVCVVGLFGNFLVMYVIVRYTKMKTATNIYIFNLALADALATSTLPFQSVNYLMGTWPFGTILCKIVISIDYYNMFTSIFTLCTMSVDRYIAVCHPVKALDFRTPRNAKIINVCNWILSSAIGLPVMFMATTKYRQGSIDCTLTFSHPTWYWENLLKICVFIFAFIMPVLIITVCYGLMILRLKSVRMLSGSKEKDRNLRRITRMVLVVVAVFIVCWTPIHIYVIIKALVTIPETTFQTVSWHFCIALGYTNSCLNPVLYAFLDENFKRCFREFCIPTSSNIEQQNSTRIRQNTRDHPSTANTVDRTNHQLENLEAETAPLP
# T2 sequence (P41145 whole entry): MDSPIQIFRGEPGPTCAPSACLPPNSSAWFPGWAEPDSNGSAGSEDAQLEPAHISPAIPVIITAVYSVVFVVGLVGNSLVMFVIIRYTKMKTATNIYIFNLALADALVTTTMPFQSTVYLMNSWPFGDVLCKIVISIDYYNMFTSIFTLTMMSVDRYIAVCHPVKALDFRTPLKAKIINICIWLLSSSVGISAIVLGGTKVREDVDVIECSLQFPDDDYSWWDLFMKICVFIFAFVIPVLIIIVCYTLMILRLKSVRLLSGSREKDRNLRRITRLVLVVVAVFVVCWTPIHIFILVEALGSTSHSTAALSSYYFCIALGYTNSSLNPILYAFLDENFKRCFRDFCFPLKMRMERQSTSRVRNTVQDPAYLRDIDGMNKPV
# T3 sequence (P41143 whole entry): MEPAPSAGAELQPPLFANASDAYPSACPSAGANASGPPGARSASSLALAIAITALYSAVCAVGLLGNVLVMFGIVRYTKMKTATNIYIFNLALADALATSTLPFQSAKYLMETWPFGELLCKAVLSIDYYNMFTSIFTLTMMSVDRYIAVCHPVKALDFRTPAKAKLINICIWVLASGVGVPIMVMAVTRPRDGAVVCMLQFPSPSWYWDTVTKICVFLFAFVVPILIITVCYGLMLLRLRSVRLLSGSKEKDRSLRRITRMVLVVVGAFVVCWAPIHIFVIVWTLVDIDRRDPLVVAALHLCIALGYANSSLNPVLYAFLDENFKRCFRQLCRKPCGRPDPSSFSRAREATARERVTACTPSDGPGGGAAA
# T5 sequence (P35372 whole entry): as the sequence (P35372 whole entry) above
# T7 sequence (P41145 whole entry): as the sequence (P41145 whole entry) above
# T1 sequence (P41143 whole entry): as the sequence (P41143 whole entry) above
# T6 sequence (P41143 whole entry): as above
structure (smiles),measurement,setting,value
"CN1/C(=C/C=C/C2=[N+](CCCCCC(=O)NCC(=O)NCC(=O)NCC(=O)NCC(=O)Nc3cccc4c5c([nH]c34)[C@@H]3Oc4c(O)ccc6c4[C@@]34CCN(CC3CC3)[C@H](C6)[C@]4(O)C5)c3ccc(S(=O)(=O)[O-])cc3C2(C)C)C(C)(C)c2cc(S(=O)(=O)O)ccc21 [6-Cy3, 1-(1-(((4bS,8R,8aS,14bR)-7-(cyclopropylmethyl)-1,8a-dihydroxy-5,6,7,8,8a,9,14,14b-octahydro-4,8-methanobenzofuro[2,3-a]pyrido[4,3-b]carbazol-13-yl)amino)-1,4,7,10,13-pentaoxo-3,6,9,12-tetraazaoctadecan-18-yl)-3,3-dimethyl-2-((E)-3-((E)-1,3,3-trimethyl-5-sulfoindolin-2-ylidene)prop-1-en-1-yl)-3H-indol-1-ium-5-sulfonate]",time after labeling at which labeled δOR molecules could still be observed diffusing on the plasma membrane,wild-type human δOR,2 to 3 h
same,Ki,human κOR,330 nM
same,κ/δ,human κOR,190
same,IC50,δOR [1],47 nM
same,Emax,δOR [1],< 5%
same,response in agonist mode,δOR [1],did not elicit a response
same,wash resistance,δOR [2]; after 15 min of medium wash out,69 ± 1%
same,IC50,δOR [3],38 nM
same,Emax,δOR [3],< 10%
same,response in agonist mode,δOR [3],did not elicit a response
same,Ki,human μOR,370 nM
same,μ/δ,human μOR,220
"CN1/C(=C/C=C/C=C/C2=[N+](CCCCCC(=O)NCC(=O)NCC(=O)NCC(=O)NCC(=O)Nc3cccc4c5c([nH]c34)[C@@H]3Oc4c(O)ccc6c4[C@@]34CCN(CC3CC3)[C@H](C6)[C@]4(O)C5)c3ccc(S(=O)(=O)[O-])cc3C2(C)C)C(C)(C)c2cc(S(=O)(=O)O)ccc21 [6-Cy5, 1-(1-(((4bS,8R,8aS,14bR)-7-(cyclopropylmethyl)-1,8a-dihydroxy-5,6,7,8,8a,9,14,14b-octahydro-4,8-methanobenzofuro[2,3-a]pyrido[4,3-b]carbazol-13-yl)amino)-1,4,7,10,13-pentaoxo-3,6,9,12-tetraazaoctadecan-18-yl)-3,3-dimethyl-2-((1E,3E)-5-((E)-1,3,3-trimethyl-5-sulfoindolin-2-ylidene)penta-1,3-dien-1-yl)-3H-indol-1-ium-5-sulfonate]",Kd,[4]; [7],215 ± 262 nM
same,μ/δ,[4]; [8],120
same,Ki,human κOR,78 nM
same,κ/δ,human κOR,65
same,IC50,δOR [1],33 nM
same,Emax,δOR [1],< 5%
same,response in agonist mode,δOR [1],did not elicit a response
same,Kd,[5],1.8 ± 0.8 nM
same,wash resistance,δOR [2]; after 20 min of medium wash out,93 ± 1%
same,IC50,δOR [3],54 nM
same,Emax,δOR [3],< 5%
same,response in agonist mode,δOR [3],did not elicit a response
same,Ki,human μOR,100 nM
same,μ/δ,human μOR,83
same,Kd,[6]; [7],226 ± 131 nM
same,κ/δ,[6]; [8],126
